Laboratory results as given in patent US10800784B2, “Nitrogen-containing heterocyclic amide compound and pharmaceutical use thereof” (Japan Tobacco Inc., priority 2018, dated 2020).

Assays:
human PDHK2 (hPDHK2) = human PDHK2 (hPDHK2) (Homo sapiens (Human), UniProt Q15119); assay: Inhibitory action of PDHK2 activity in vitro (residual PDH activity after PDHK reaction); assay type: biochemical; conditions: for IC50: PDH/hPDHK2 complex solution, PDHK reaction at room temperature for 45 min, NADH absorbance at 340 nm, read-out: kPDK2 IC50
Experimental: (§1) The inhibitory action of PDHK activity was assessed indirectly by measuring the residual PDH activity after PDHK reaction in the presence of a test compound.
(Inhibitory Action of PDHK2 Activity)
In the case of human PDHK2 (hPDHK2, NCBI Reference Database Accession number NM_002611.4), modified hPDHK2 cDNA wherein FLAG-Tag sequence was added to the N terminus of hPDHK2 cDNA clone (pReceiver-M01/PDK2-GeneCopoeia) as the base was prepared by PCR and ligated to the NdeI/EcoRI site of pET-17b vector. The recombinant construct was transformed into Escherichia coli DH5a. The recombinant clones were identified, and plasmid DNA was isolated and subjected to the DNA sequence analysis. One clone which had the expected nucleic acid sequence was selected for expression work.
For expression of hPDHK2 activity, Escherichia coli strain BL21(DE3) cells were transformed with the pET17b vector containing modified hPDHK2 cDNA. The Escherichia coli were grown to an optical density 0.6 ([…]) at 30° C. Protein expression was induced by the addition of 500 μmol/L isopropyl-β-thiogalactopyranoside. The Escherichia coli were cultured at 20° C. for 17-18 hr and harvested by centrifugation. The harvested Escherichia coli was resuspended in a suspension buffer (20 mmol/L HEPES-NaOH, 500 mmol/L sodium chloride, 1% ethylene glycol, 0.1% pluronic F-68 (pH 8.0), cOmplete, EDTA-free (pH 8.0)), and disrupted by a microfluidizer. The precipitate was removed by centrifugation and the supernatant was added to DDDDK-tagged Protein PURIFICATION GEL. DDDDK-tagged Protein PURIFICATION GEL was washed with a washing buffer (20 mmol/L HEPES-NaOH, 500 mmol/L sodium chloride, 1% ethylene glycol, 0.1% pluronic F-68 (pH 8.0)) and the bound protein was eluted with elution buffer 1 (20 mmol/L HEPES-NaOH, 100 μg/mL peptide (amino acid sequence DYKDDDDK) (SEQ ID NO: 1), 500 mmol/L sodium chloride, 1% ethylene glycol, 0.1% pluronic F-68 (pH 8.0)). The eluted fractions containing FLAG-Tagged protein were pooled, concentrated by an ultrafiltration method, added to a gel filtration column (HiLoad 26/60 Superdex 200), and eluted with elution buffer 2 (20 mmol/L HEPES-NaOH, 150 mmol/L sodium chloride, 0.5 mmol/L ethylenediaminetetraacetic acid (EDTA), 1% ethylene glycol, 0.1% pluronic F-68 (pH 8.0)). The eluted fractions were pooled and preserved at −80° C.
0.025 U/mL PDH and 0.5 μg/mL hPDHK2 were mixed in an assay buffer (50 mmol/L 3-morpholinopropanesulfonic acid (pH 7.0), 20 mmol/L dipotassium hydrogen phosphate, 60 mmol/L potassium chloride, 2 mmol/L magnesium chloride, 0.4 mmol/L EDTA, 0.2% poloxamer, 2 mmol/L dithiothreitol), and the mixture was incubated at 4° C. overnight to obtain a PDH/hPDHK2 complex solution. In the assay buffer, 0.025 U/mL PDH was mixed and incubated at 4° C. overnight to prepare a PDH solution.
The test compounds were diluted with DMSO. To measure an inhibitory action of the test compound on the PDHK activity in the PDH/hPDHK2 complex solution, PDH/hPDHK2 complex solution (20 μL), test compound (1.5 μL) and 1.06 μmol/L ATP (diluted with assay buffer) (8.5 μL) were added to a 384 well microplate and PDHK reaction was performed at room temperature for 45 min (test compound well). DMSO (1.5 μL) was added to control wells instead of test compound. In addition, DMSO (1.5 μL) was added to blank wells instead of the test compound, and PDH solution was added instead of the PDH/hPDHK2 complex solution. To measure an inhibitory action of the test compound on the PDHK activity inherent in the PDH solution, a test compound was added and the PDH solution instead of the PDH/hPDHK2 complex solution was added to a blank+test compound well.
Then, 10 μL of substrates (5 mmol/L sodium pyruvate, 5 mmol/L Coenzyme A, 12 mmol/L NAD, 5 mmol/L thiamine pyrophosphate, diluted with assay buffer) were added. The mixture was incubated at room temperature for 90 min, and the residual PDH activity was measured. […]

human PDHK1 (hPDHK1) = human PDHK1 (hPDHK1) (Homo sapiens (Human), UniProt Q15118); assay: Inhibitory action of PDHK1 activity in vitro (residual PDH activity after PDHK reaction); assay type: biochemical; conditions: for IC50: PDH/hPDHK1 complex solution, PDHK reaction at room temperature for 45 min, NADH absorbance at 340 nm, read-out: hPDK1 IC50; for inhibition at 0.003 µM: at 3 nmol/L, shown when IC50 value could not be calculated, read-out: hPDHK1 inhibitory rate at the lowest concentration of the test compound
Sequence of human PDHK1 (hPDHK1) (Q15118 29-436): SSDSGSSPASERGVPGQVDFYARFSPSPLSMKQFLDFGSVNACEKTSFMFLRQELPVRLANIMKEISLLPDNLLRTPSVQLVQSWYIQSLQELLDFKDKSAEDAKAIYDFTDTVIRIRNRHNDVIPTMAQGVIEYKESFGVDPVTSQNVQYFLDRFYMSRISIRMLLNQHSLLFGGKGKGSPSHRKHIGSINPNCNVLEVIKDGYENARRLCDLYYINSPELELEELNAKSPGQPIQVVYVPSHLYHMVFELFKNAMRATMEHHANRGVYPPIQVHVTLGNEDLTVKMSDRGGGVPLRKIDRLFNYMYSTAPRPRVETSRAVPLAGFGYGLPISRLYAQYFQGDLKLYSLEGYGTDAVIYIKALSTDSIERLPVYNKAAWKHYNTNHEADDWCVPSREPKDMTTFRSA
Experimental: as §1
(Inhibitory Action of PDHK1 Activity)
In the case of human PDHK1 (hPDHK1, NCBI Reference Database Accession number NM_002610.3), a 1.3 kbp fragment encoding this protein was isolated from human liver cDNA by polymerase chain reaction (PCR). Modified hPDHK1 cDNA wherein FLAG-Tag sequence was added to the N terminus was prepared by PCR and ligated to the NdeI/EcoRI site of pET-17b vector (Merck MGaA, model number 69663-3). The recombinant construct was transformed into Escherichia coli DH5a (TOYOBO, model number DNA-903). The recombinant clones were identified, and plasmid DNA was isolated and subjected to the DNA sequence analysis. One clone which had the expected nucleic acid sequence was selected for expression work.
For expression of hPDHK1 activity, Escherichia coli strain BL21(DE3) cells (Merck KGaA, model number 69450-4) were transformed with the pET17b vector containing modified hPDHK1 cDNA. The Escherichia coli were grown to an optical density 0.6 ([…]) at 30° C. Protein expression was induced by the addition of 500 μmol/L isopropyl-β-thiogalactopyranoside. The Escherichia coli were cultured at 20° C. for 17-18 hr and harvested by centrifugation.
The harvested Escherichia coli was resuspended in a suspension buffer (20 mmol/L N-(2-hydroxyethyl)piperazine-N′-2-ethanesulfonic acid-sodium hydroxide (HEPES-NaOH), 500 mmol/L sodium chloride, 1% ethylene glycol, and 0.1% polyoxyethylene-polyoxypropylene block copolymer (Pluronic F-68), complete, EDTA-free (pH 8.0)) and disrupted by a microfluidizer M-110H (MIZUHO INDUSTRIAL CO., LTD.) or ultrasonication. The precipitate was removed by centrifugation and the supernatant was added to DDDDK-tagged Protein PURIFICATION GEL (MBL, model number 3329). DDDDK-tagged Protein PURIFICATION GEL was washed with a washing buffer (20 mmol/L HEPES-NaOH, 500 mmol/L sodium chloride, 1% ethylene glycol, 0.1% pluronic F-68 (pH 8.0)) and the bound protein was eluted with elution buffer 1 (20 mmol/L HEPES-NaOH, 100 μg/mL peptide (amino acid sequence DYKDDDDK) (SEQ ID NO: 1), 500 mmol/L sodium chloride, 1% ethylene glycol, 0.1% pluronic F-68 (pH 8.0)).
The eluted fractions containing FLAG-Tagged protein were pooled, concentrated by an ultrafiltration method, added to a gel filtration column (HiLoad 26/60 Superdex 200 (GE Healthcare, model number 17-1070-01)), and eluted with elution buffer 2 (20 mmol/L HEPES-NaOH, 150 mmol/L sodium chloride, 0.5 mmol/L ethylenediaminetetraacetic acid (EDTA), 1% ethylene glycol, 0.1% pluronic F-68 (pH 8.0)). The eluted fractions were pooled and preserved at −80° C.
0.025 U/mL PDH (porcine heart PDH complex, Sigma P7032) and 0.5 μg/mL hPDHK1 were mixed in an assay buffer (50 mmol/L 3-morpholinopropanesulfonic acid (pH 7.0), 20 mmol/L dipotassium hydrogen phosphate, 60 mmol/L potassium chloride, 2 mmol/L magnesium chloride, 0.4 mmol/L EDTA, 0.2% poloxamer, 2 mmol/L dithiothreitol), and the mixture was incubated at 4° C. overnight to obtain a PDH/hPDHK1 complex solution. In the assay buffer, 0.025 U/mL PDH was mixed and incubated at 4° C. overnight to prepare a PDH solution.
The test compounds were diluted with dimethyl sulfoxide (DMSO). To measure an inhibitory action of the test compound on the PDHK activity in the PDH/hPDHK1 complex solution, PDH/hPDHK1 complex solution (20 μL), test compound (1.5 μL) and 0.353 μmol/L ATP (diluted with assay buffer) (8.5 μL) were added to a 384 well microplate (Greiner Bio-One 781801) and PDHK reaction was performed at room temperature for 45 min (test compound well). DMSO (1.5 μL) was added to control wells instead of test compound. In addition, DMSO (1.5 μL) was added to blank wells instead of the test compound, and PDH solution was added instead of the PDH/hPDHK1 complex solution. […]

IC50 (human PDHK2 (hPDHK2)) [nM]	IC50 (human PDHK1 (hPDHK1)) [nM]	inhibition at 0.003 µM (human PDHK1 (hPDHK1)) [%]	hPDHK2 inhibitory rate at the lowest concentration of the test compound (human PDHK2 (hPDHK2); lowest concentration of the test compound in the assay (<3 nmol/L), shown when IC50 value could not be calculated) [%]	Compound
5	6			C[C@H]1CN(C(=O)c2c3cc(F)ccc3nn2C)Cc2cnc([C@@](C)(O)C(F)(F)F)n21 [Example 1]
15	12			C[C@H]1CN(C(=O)c2nc3ccc(F)cc3o2)Cc2cnc([C@@](C)(O)C(F)(F)F)n21 [Example 2]
14	16			C[C@H]1CN(C(=O)C2Cc3ccccc3C2)Cc2cnc([C@@](C)(O)C(F)(F)F)n21 [Example 3, (2,3-dihydro-1H-inden-2-yl)((S)-5-methyl-3-((R)-1,1,1-trifluoro-2-hydroxypropan-2-yl)-5,6-dihydroimidazo[1,5-a]pyrazin-7(8H)-yl)methanone]
5	4			C[C@H]1CN(C(=O)c2c3ccc(C#N)cc3nn2C)Cc2cnc([C@@](C)(O)C(F)(F)F)n21 [Example 4, 2-methyl-3-((S)-5-methyl-3-((R)-1,1,1-trifluoro-2-hydroxypropan-2-yl)-5,6,7,8-tetrahydroimidazo[1,5-a]pyrazine-7-carbonyl)-2H-indazole-6-carbonitrile]
5	< 3	55		C[C@H]1CN(C(=O)c2nn(C)c3cc(C#N)ccc23)Cc2cnc([C@@](C)(O)C(F)(F)F)n21 [Example 5, 1-methyl-3-((S)-5-methyl-3-((R)-1,1,1-trifluoro-2-hydroxypropan-2-yl)-5,6,7,8-tetrahydroimidazo[1,5-a]pyrazine-7-carbonyl)-1H-indazole-6-carbonitrile]
11	11			C[C@H]1CN(C(=O)c2c3c(F)cc(F)cc3nn2C)Cc2cnc([C@@](C)(O)C(F)(F)F)n21 [Example 6]
10	8			C[C@H]1CN(C(=O)c2nn(C)c3cc(F)cc(F)c23)Cc2cnc([C@@](C)(O)C(F)(F)F)n21 [Example 7]
34	49			C[C@H]1CN(C(=O)c2cnc3ccc(F)cn23)Cc2cnc([C@@](C)(O)C(F)(F)F)n21 [Example 8]
11	7			C[C@H]1CN(C(=O)c2c3cc(F)c(F)cc3nn2C)Cc2cnc([C@@](C)(O)C(F)(F)F)n21 [Example 9, (5,6-difluoro-2-methyl-2H-indazol-3-yl) ((S)-5-methyl-3-((R)-1,1,1-trifluoro-2-hydroxypropan-2-yl)-5,6-dihydroimidazo[1,5-a]pyrazin-7(8H)-yl)methanone]
13	9			C[C@H]1CN(C(=O)c2nn(C)c3cc(F)c(F)cc23)Cc2cnc([C@@](C)(O)C(F)(F)F)n21 [Example 10, (5,6-difluoro-1-methyl-1H-indazol-3-yl)((S)-5-methyl-3-((R)-1,1,1-trifluoro-2-hydroxypropan-2-yl)-5,6-dihydroimidazo[1,5-a]pyrazin-7(8H)-yl)methanone]
15	14			C[C@H]1CN(C(=O)c2ccc3c(c2)OC(F)(F)O3)Cc2cnc([C@@](C)(O)C(F)(F)F)n21 [Example 11, (2,2-difluorobenzo[d][1,3]dioxol-5-yl)((S)-5-methyl-3-((R)-1,1,1-trifluoro-2-hydroxypropan-2-yl)-5,6-dihydroimidazo[1,5-a]pyrazin-7(8H)-yl)methanone]
10	8			C[C@H]1CN(C(=O)c2ccc3nn(C)cc3c2)Cc2cnc([C@@](C)(O)C(F)(F)F)n21 [Example 12]
36	29			C[C@H]1CN(C(=O)c2cc3ccccc3o2)Cc2cnc([C@@](C)(O)C(F)(F)F)n21 [Example 13]
< 3	< 3	68	57	C[C@H]1CN(C(=O)c2cc(C3CC3)nn2C)Cc2cnc([C@@](C)(O)C(F)(F)F)n21 [Example 14]
5	3			C[C@H]1CN(C(=O)c2cc(-c3ccccc3)nn2C)Cc2cnc([C@@](C)(O)C(F)(F)F)n21 [Example 15]
